Active and inactive are the calls of the source.
Assays:
cells [1] = assay type: functional, cell-based
cells [2] = assay type: functional, cell-based; remark: listed apart in the source
[3] = target: T1, Rac GTPase-activating protein 1 (Homo sapiens, UniProt Q9H0H5); assay: MgcRacGAP GTPase-activating activity inhibitors, confirmation, biochemical, ADP Hunter fluorescence, primary and confirmatory (AID 624330); assay type: functional
T1 sequence (Q9H0H5 whole entry): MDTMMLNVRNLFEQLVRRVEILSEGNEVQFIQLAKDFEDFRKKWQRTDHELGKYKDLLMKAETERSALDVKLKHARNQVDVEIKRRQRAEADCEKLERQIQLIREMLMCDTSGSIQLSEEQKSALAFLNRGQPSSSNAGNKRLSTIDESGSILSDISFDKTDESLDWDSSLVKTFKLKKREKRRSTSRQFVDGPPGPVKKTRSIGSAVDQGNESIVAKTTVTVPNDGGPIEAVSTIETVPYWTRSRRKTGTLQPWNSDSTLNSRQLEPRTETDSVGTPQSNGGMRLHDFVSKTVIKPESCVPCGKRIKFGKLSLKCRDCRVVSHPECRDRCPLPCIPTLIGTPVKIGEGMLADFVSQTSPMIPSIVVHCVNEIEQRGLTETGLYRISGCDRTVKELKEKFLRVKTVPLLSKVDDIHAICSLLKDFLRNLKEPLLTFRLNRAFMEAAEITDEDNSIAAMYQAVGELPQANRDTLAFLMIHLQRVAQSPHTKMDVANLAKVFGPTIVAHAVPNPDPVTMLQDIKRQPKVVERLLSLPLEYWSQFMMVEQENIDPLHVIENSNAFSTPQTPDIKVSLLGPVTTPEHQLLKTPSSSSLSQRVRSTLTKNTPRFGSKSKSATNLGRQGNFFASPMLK

[4] = target: Heat shock protein HSP 90-alpha (Homo sapiens, UniProt P07900); assay type: functional, organism-based
[5] = target: T2, Ubiquitin-conjugating enzyme E2 N (Homo sapiens, UniProt P61088); assay type: functional;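 also: Dose-response confirmation in a TR-FRET assay detecting UBC13-driven polyubiquitin chain formation, inhibition measured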
T2 sequence (P61088 whole entry): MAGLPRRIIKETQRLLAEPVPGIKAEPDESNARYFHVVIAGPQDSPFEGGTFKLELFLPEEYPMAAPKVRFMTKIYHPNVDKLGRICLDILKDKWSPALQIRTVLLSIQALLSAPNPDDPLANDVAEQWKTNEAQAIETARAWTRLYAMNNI

[6] = growth suppression of beta-catenin-knockout colon cells, dose response, cell-based, HCT116, human colon tumor (AID 1045); assay type: functional;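 also: HCT116 colon tumor cells with beta catenin knocked out; cells exposed to compound for 60 hours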
[7] = growth suppression of PTEN-null colon cells, dose response, cell-based, HCT116 PTEN knockout (AID 1047); assay type: functional;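 also: HCT116 colon tumor cells with PTEN knocked out; cells exposed to compound for 60 hours before readout; potency for loss of cell viability measured by luminescence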
[8] = target: Induced myeloid leukemia cell differentiation protein Mcl-1 (Homo sapiens, UniProt Q07820); assay type: functional
Chain of Induced myeloid leukemia cell differentiation protein Mcl-1 (Q07820 whole entry): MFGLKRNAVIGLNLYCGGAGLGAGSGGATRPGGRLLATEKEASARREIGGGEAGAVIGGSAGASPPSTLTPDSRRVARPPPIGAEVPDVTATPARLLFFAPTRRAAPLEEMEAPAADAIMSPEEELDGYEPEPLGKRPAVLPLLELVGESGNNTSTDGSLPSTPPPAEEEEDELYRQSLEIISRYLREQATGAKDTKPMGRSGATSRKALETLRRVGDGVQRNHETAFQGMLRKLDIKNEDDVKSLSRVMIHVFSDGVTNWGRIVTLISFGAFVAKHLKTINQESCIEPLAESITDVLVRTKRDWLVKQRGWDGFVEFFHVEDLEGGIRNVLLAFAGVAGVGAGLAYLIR

[9] = target: T3, Microphthalmia-associated transcription factor (Homo sapiens, UniProt O75030); assay: TRPM1 promoter luciferase signal decrease, dose response, MITF inhibitor project, cell-based, SK-MEL-5, cherry-picked, set 3 (AID 493073); assay type: functional
T3 sequence (O75030 whole entry): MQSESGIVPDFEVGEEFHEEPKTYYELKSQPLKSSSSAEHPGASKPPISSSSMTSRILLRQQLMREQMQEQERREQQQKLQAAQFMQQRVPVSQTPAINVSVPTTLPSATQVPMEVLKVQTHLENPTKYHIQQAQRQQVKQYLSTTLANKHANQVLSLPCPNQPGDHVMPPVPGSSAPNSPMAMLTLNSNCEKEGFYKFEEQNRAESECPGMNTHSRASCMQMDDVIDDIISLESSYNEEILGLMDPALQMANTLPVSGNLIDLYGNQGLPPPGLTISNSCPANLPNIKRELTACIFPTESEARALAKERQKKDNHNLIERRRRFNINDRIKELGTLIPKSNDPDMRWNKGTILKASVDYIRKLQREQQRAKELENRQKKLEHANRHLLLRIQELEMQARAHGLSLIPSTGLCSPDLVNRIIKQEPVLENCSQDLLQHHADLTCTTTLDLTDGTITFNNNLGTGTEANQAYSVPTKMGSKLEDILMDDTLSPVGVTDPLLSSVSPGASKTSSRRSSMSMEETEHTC

[10] = target: T4, Polyadenylate-binding protein 1 (Homo sapiens, UniProt P11940); assay: PABP1 MLLE–PAM2 binding inhibitor potency, dose response, biochemical, fluorescence polarization, FITC-PAM2 peptide (AID 602259); assay type: functional; conditions: read-out: IC50_Mean
T4 sequence (P11940 whole entry): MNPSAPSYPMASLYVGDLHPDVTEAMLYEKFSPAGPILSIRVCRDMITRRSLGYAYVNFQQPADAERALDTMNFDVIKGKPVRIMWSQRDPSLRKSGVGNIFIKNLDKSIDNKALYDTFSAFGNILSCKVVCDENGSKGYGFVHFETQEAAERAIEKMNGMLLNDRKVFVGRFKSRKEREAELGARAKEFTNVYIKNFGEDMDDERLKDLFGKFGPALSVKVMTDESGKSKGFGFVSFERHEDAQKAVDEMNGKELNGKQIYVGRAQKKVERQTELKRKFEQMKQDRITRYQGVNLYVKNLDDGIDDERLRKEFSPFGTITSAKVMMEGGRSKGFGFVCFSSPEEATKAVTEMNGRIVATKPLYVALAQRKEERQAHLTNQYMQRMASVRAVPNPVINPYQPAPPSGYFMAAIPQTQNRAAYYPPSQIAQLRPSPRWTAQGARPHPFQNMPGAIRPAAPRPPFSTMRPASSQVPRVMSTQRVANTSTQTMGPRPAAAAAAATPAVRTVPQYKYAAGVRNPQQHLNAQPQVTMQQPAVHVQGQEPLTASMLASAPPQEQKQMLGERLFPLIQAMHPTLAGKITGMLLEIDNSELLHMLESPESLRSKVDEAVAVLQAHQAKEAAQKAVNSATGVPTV

Protein skinhead-1 = target: T5, Protein skinhead-1 (Caenorhabditis elegans, UniProt P34707); assay type: functional
T5 sequence (P34707 whole entry): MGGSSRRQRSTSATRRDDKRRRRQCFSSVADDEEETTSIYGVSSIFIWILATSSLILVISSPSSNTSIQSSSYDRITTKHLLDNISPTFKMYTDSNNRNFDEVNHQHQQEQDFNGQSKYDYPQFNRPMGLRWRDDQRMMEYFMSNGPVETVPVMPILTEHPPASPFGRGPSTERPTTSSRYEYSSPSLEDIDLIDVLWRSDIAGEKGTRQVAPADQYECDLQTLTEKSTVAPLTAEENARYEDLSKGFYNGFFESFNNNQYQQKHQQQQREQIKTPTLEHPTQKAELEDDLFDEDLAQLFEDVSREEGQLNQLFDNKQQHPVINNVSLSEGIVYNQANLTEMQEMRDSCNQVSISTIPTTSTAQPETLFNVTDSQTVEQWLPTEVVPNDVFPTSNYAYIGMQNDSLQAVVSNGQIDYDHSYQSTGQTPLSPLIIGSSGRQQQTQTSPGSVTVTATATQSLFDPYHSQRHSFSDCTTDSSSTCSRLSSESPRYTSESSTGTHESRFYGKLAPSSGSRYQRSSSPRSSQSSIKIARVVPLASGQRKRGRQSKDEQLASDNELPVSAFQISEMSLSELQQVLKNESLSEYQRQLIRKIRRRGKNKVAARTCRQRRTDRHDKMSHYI

[11] = target: T4, Polyadenylate-binding protein 1; assay: PABP1 MLLE–PAM2 interaction inhibitors, dose response, miRNA deadenylation inhibitor project, biochemical, fluorescence polarization, Cy5-PAM2 peptide, secondary (AID 602260); assay type: functional; conditions: read-out: IC50_Mean
Large T antigen = Large T antigen (Simian virus 40, UniProt P03070); assay type: functional, Betapolyomavirus macacae;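 also: Confirmatory-stage PubChem screen for compounds that inhibit SV40 T antigen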
Chain of Large T antigen (P03070 whole entry): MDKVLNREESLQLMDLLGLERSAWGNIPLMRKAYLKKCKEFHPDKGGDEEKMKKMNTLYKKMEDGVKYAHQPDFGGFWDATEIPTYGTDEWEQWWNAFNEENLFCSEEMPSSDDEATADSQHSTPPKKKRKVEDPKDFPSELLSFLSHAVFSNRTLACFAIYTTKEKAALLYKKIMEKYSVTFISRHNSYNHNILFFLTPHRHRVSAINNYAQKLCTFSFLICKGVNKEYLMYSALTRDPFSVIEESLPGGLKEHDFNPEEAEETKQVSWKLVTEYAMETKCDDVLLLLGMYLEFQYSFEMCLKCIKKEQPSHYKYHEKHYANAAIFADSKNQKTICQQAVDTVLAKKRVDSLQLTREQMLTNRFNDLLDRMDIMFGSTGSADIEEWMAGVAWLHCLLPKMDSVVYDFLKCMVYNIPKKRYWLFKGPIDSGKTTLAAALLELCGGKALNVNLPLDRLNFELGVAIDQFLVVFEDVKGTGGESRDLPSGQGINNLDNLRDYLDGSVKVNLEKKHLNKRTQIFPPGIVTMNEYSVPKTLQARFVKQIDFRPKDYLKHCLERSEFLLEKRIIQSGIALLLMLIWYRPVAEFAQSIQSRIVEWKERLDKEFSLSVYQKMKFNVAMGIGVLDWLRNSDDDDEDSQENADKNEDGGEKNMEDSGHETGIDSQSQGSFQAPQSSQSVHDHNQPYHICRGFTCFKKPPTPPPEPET

INS1 = assay: beta cell apoptosis inhibitors, cytokine rescue, dose response, luminescence, retest (AID 449756); assay type: functional, cell-based; conditions: Rattus norvegicus;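 also: cell death triggered by IL-1 beta plus TNF-alpha plus IFN-gamma mixture; protective hits raise ATP signal compared with cytokine alone wells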
[12] = Luminescence Cell-Based Dose Retest to Confirm Inhibitors of Cancer Stem Cells. [Related pubchem assays (depositor defined):AID2717, AID2721]; assay type: functional; conditions: Homo sapiens
H4 = assay: Luminescence Cell-Based Dose Response HTS to Identify Activators of 5'UTR Stem-Loop Driven Prion Protein mRNA Translation in H4 Neuroglioblastoma Cells. [Related pubchem assays: 1829 (Project Summary), 1814 (Primary HTS)]; assay type: functional; conditions: Homo sapiens
[13] = Luminescence Cell-Based Dose Confirmation HTS to Identify Activators of 5'UTR Stem-Loop Driven Alpha-Synuclein mRNA Translation in H4 Neuroglioblastoma Cells. [Related pubchem assays: 1829 (Project Summary), 1814 (Primary HTS)]; assay type: functional
[14] = Luminescence Cell-Based Dose Response HTS to Identify Activators of Luciferase Translation or Activity in H4 […] Cells. [Related pubchem assays: 1829 (Project Summary), 1814 (Primary HTS)]; assay type: functional
[15] = C. albicans growth with fluconazole, confirmation, fluorescence, retest (AID 2467); assay type: functional, cell-based
[16] = NIH-3T3 fibroblast cytotoxicity, dose response, cytotoxicity control, cell-based, fluorescence, Alamar Blue, secondary assay (AID 2327); assay type: functional;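 also: NIH-3T3 mouse fibroblasts cultured with fluconazole at 8 µg/mL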

With Cc1ccc(O)c(NC(=O)c2ccc3c(c2)C(=O)N(Cc2ccco2)C3=O)c1 the EC50 (cells [1]) was 52.2 µM (active) and the EC50 (cells [2]) was > 350 µM (not active).

In the case of COc1ccccc1CNCC(=O)Nc1ccc(N(C)C)cc1, the IC50 [3] is reported as 32.1 µM (active).

In the case of COc1cccc(N2CC(C(=O)Oc3ccc4ccccc4c3)CC2=O)c1 (configuration not stated), the IC50 [3] is reported as 16.1 µM (active).

In the case of CCN(CC)S(=O)(=O)c1cccc(C(=O)NCC(c2ccccc2)N(C)C)c1 (configuration not stated), the AC50 [4] is reported as 3.2 µM (active).

In the case of O=C(N/N=C/c1ccccn1)c1cc(-c2ccccc2Cl)n[nH]1, the IC50 [5] is reported as > 20 µM (inactive).

With Cc1cc(C2N=C(N)Nc3nc4ccccc4n32)c(C)n1-c1ccccc1Cl (configuration not stated) the EC50 [6] was 23.4 µM (active), the IC50 [5] was > 20 µM (inactive) and the EC50 [7] was 30.1 µM (active).

For CSCc1nc2sc(C(=O)Nc3nc(C)cs3)c(C)c2c(=O)[nH]1, the IC50 [8] was 3.89 µM (active).

With CCN1c2ccccc2NC2C1C(C(C)=O)C(=O)N2c1ccc(Cl)cc1 (configuration not stated) the AC50 [9] was 12.7 µM (active).

For CC1=C(C(=O)OCc2ccccc2)C(/C=C/c2ccccc2)NC(S)=N1 (configuration not stated), the AC50 [4] was 4.08 µM (active).

In the case of C/C(=C\C(=O)OCC(=O)NCc1ccccc1)C(=O)OCC(=O)NCc1ccccc1, the EC50 (cells [1]) is reported as > 350 µM (not active) and the EC50 (cells [2]) is reported as > 350 µM (not active).

For C=CC(n1cncn1)C(O)(c1ccccc1)c1ccccc1 (configuration not stated), the AC50 [4] was 0.826 µM (active).

With Cc1ccc(S(=O)(=O)Nc2nsc(N)n2)cc1 the IC50 [3] was 82.8 µM (active).

With COc1ccc(C2=CC3=C(Br)C(=O)C(C)(O)C(=O)C3=CO2)cc1 (configuration not stated) the AC50 [4] was 2.62 µM (active).

For CCN(CCO)C1CC(=O)N(c2ccccc2C)C1=O (configuration not stated), the AC50 [4] was 2.14 µM (active).

With Cc1cc2cc(CNC(=O)Cc3ccc([N+](=O)[O-])cc3)ccc2n1C the IC50 [10] was > 66 µM (inactive), the IC50 (Protein skinhead-1) was > 100 µM (inactive) and the IC50 [11] was > 66 µM (inactive).

With COc1ccc(OCCCC(=O)Nc2ccc(S(=O)(=O)N3CCOCC3)cc2)cc1 the IC50 [5] was > 20 µM (inactive).

In the case of Cc1cc(NC(=O)CN2CCN(C)CC2)no1, the IC50 [3] is reported as 157 µM (active).

For O=C(N/N=C/c1ccc(O)c(O)c1)c1ccc(CSc2cccc3cccnc23)cc1, the IC50 [8] was 4.61 µM (active) and the IC50 (Large T antigen) was 5.43 µM (active).

For COc1ccc2nc(C)cc(SCC(=O)N/N=C/c3ccc(O)cc3O)c2c1, the EC50 (cells [1]) was > 350 µM (not active), the AC50 (INS1) was 2.65 µM (active) and the AC50 [12] was 2.74 µM (active). The AC50 [9] was 10.1 µM (active) and the EC50 (cells [2]) was 12.9 µM (active).

For CCN=c1ccc(Br)cc(C(=O)/C=C/c2ccc(Cl)cc2)c1O, the IC50 [8] was 3.55 µM (active).

With Cc1ccc2[nH]c(N3CCN(C)CC3)nc2c1 the EC50 (cells [1]) was > 350 µM (not active), the EC50 (H4) was 20 µM (active) and the EC50 [13] was 3.62 µM (active). The EC50 (cells [2]) was > 350 µM (not active) and the EC50 [14] was 18.7 µM (active).

With Oc1ccc(CN2CCC(Cc3ccccc3)CC2)c2cccnc12 the EC50 (cells [1]) was > 350 µM (not active), the EC50 [15] was 1.99 µM (active) and the EC50 [16] was 22.3 µM (active). For the same molecule, the EC50 (cells [2]) was 6.9 µM (active).

In the case of CCN1C(=O)/C(=C/c2ccc3c(c2)CCN3CCCCl)C(=O)NC1=S, the IC50 [8] is reported as 3.4 µM (active).

For CCN1CCN(c2ccc([N+](=O)[O-])cc2C=C2C(=O)NC(=O)NC2=O)CC1, the EC50 (cells [1]) was > 350 µM (not active) and the EC50 (cells [2]) was > 350 µM (not active).

For O=C1NC(=O)C(=Cc2cccs2)C(=O)N1, the IC50 [3] was 188 µM (active).

With CC(=O)NC(C)c1cc(Cl)c2ccccc2c1O (configuration not stated) the IC50 [5] was > 20 µM (inactive).

With CCOC(=O)CN(C(=O)COc1nc(C)cc(C)c1C#N)c1cccc(Cl)c1 the EC50 (cells [1]) was > 350 µM (not active) and the EC50 (cells [2]) was > 350 µM (not active).
